Legend:
[1] = target: T1, NanoLuc (Oplophorus gracilirostris, UniProt Q9GV45, A31E/A60N/A81I/F95D/I117V/K70R/L54V/L99Q/M102K/N193R/P142E/Q151K/Q38R/Q45L/V71I/Y165I); assay type: biochemical; conditions: for RLU (at 100 μM): relative value, Furimazine set to 1, NanoLuc, read three minutes after substrate addition
Method: Luminescence Assay Procedure:
Each compound to be screened was dissolved in DMSO (5 mM) and then further diluted to 100 μM in NANO-GLO® Luciferase Assay Buffer. Km values were determined by first serially diluting substrates two-fold into NANO-GLO® Luciferase Assay Buffer. Substrate dilutions were then combined with an equal volume of NanoLuc diluted to 4 ng/ml in TBS+0.01% BSA. Autoluminescence was measured by combining the 100 uM dilution of substrate with TBS+0.01% BSA. Luminescence and autoluminescence values were measured in a GloMax®-Multi+ luminometer three minutes after substrate addition. Signal decay was measured by combining equal volumes of 100 uM of substrate with 4 ng/ml NanoLuc in TBS+0.01% BSA and then samples were read in five minute intervals for two hours using a GloMax®-Multi+. Km was calculated using GraphPad Prism using nonlinear Michaelis-Menten regression. Signal half-life values were calculated using GraphPad Prism Non-linear decay, plateau set to zero.

[2] = target: T1, NanoLuc; assay: Inhibition of NanoLuc luciferase: blocking of furimazine luminescence after pre-incubation; assay type: biochemical; conditions: for Inhibition of NanoLuc (bioluminescence upon later furimazine addition): compound incubated with NanoLuc first, then furimazine (10 μM) added; for Initial luminescent signal compared with furimazine: incubated with NanoLuc in DMEM for 12 minutes
Method: Compounds were also tested for their ability to block furimazine luminescence with NanoLuc. Typically, NanoLuc (0.4 μg/mL) in DMEM was incubated with either furimazine or test compound (50 μM) while monitoring RLU's with a GloMax® luminometer for 10-60 minutes. After the set time, the plate was removed from the instrument, and a dose of furimazine (10 μM) was added to the well containing the test compound and monitored for 10-60 minutes.
FIGS. 3A-B depicts inhibition of Nluc luciferase by furimazine-h. Furimazine-h (10 μM) was incubated with NanoLuc in NanoGlo or DMEM for 15 or 10 minutes, respectively. This bright signal rapidly degrades to a fraction of the signal observed in the furimazine positive control wells.
FIG. 9 depicts inhibition of Nluc luciferase by furimazine-h. This is a reverse addition experiment as compared to FIG. 3. Furimazine (10 μM) was incubated with NanoLuc in NanoGlo® buffer for 15 minutes.
JRW-0855 and JRW-1088 were incubated with NanoLuc in DMEM for 12 minutes. […] After the incubation period, 10 μM furimazine was added to the well.

[3] = Stability in solution noted at preparation; assay type: physicochemical; conditions: note at preparation

T1 sequence (Q9GV45 28-196 with tags or gaps with the stated changes limits assumed): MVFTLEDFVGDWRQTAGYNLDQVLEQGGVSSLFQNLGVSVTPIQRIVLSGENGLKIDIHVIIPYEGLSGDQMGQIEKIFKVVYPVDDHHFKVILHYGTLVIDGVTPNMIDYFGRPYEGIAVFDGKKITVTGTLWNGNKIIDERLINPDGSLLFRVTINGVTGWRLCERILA

SMILES	Light output (value set to 1) ([1]; at 2 ng/mL NanoLuc)	RLU (at 100 μM) [1]	Inhibition of NanoLuc (bioluminescence upon later furimazine addition) [2]	Initial luminescent signal compared with furimazine [2]	Stability in solution [3]
O=c1c(Cc2ccco2)nc2c(Cc3ccccc3)[nH]c(-c3ccccc3)cn1-2 [Furimazine, 8-benzyl-2-(furan-2-ylmethyl)-6-phenylimidazo[1,2-a]pyrazin-3(7H)-one, reference compound]	~2.0×10^7 RLU	1	–	–	–
NCCCCCCOc1ccc(Cc2nc3c(Cc4ccccc4)[nH]c(-c4ccc(O)cc4)cn-3c2=O)cc1F [JRW-0855, 2-(4-((6-aminohexyl)oxy)-3-fluorobenzyl)-8-benzyl-6-(4-hydroxyphenyl)imidazo[1,2-a]pyrazin-3(7H)-one]	–	0.004	only partially inhibited	significantly lower	–
CN(C)c1ccc2c(-c3cc(C(=O)NCCCCCCOc4ccc(Cc5nc6c(Cc7ccccc7)[nH]c(-c7ccc(O)cc7)cn-6c5=O)cc4F)ccc3C(=O)[O-])c3ccc(N(C)C)cc3[o+]c2c1 [JRW-0857, 4-((6-(4-((8-benzyl-6-(4-hydroxyphenyl)-3-oxo-3,7-dihydroimidazo[1,2-a]pyrazin-2-yl)methyl)-2-fluorophenoxy)hexyl)carbamoyl)-2-(3,6-bis(dimethylamino)xanthylium-9-yl)benzoate]	–	0.00000029	did not inhibit NanoLuc	–	instability in solution
O=c1c(Cc2ccc(OCCCCCCS(=O)(=O)[O-])c(F)c2)nc2c(Cc3ccccc3)[nH]c(-c3ccc(O)cc3)cn1-2.[Na+] [JRW-0892-2, Sodium 6-(4-((8-benzyl-6-(4-hydroxyphenyl)-3-oxo-3,7-dihydroimidazo[1,2-a]pyrazin-2-yl)methyl)-2-fluorophenoxy)hexane-1-sulfonate]	–	0.04	exemplary suicide substrates of NanoLuc	–	–
O=C(NCCCCCCOc1ccc(Cc2nc3c(Cc4ccccc4)[nH]c(-c4ccc(O)cc4)cn-3c2=O)cc1F)c1ccc(C(=O)[O-])c(-c2c3ccc(O)cc3[o+]c3cc(O)ccc23)c1 [JRW-0893, 4-((6-(4-((8-benzyl-6-(4-hydroxyphenyl)-3-oxo-3,7-dihydroimidazo[1,2-a]pyrazin-2-yl)methyl)-2-fluorophenoxy)hexyl)carbamoyl)-2-(3,6-dihydroxyxanthylium-9-yl)benzoate]	–	0.05	exemplary suicide substrates of NanoLuc	–	–
O=C(CCc1ccc2n1[B-](F)(F)[N+]1=C(c3ccc[nH]3)C=CC1=C2)NCCCCCCOc1ccc(Cc2nc3c(Cc4ccccc4)[nH]c(-c4ccc(O)cc4)cn-3c2=O)cc1F [JRW-0900, N-(6-(4-((8-benzyl-6-(4-hydroxyphenyl)-3-oxo-3,7-dihydroimidazo[1,2-a]pyrazin-2-yl)methyl)-2-fluorophenoxy)hexyl)-3-(5,5-difluoro-7-(1H-pyrrol-2-yl)-5H-5l4,6l4-dipyrrolo[1,2-c:2′,1′-f][1,3,2]diazaborinin-3-yl)propanamide]	–	0.00094	did not inhibit NanoLuc	–	–
NCCCCCCCCOc1ccc(Cc2nc3c(Cc4ccccc4)[nH]c(-c4ccc(O)cc4)cn-3c2=O)cc1F [JRW-0904, 2-(4-((8-aminooctyl)oxy)-3-fluorobenzyl)-8-benzyl-6-(4-hydroxyphenyl)imidazo[1,2-a]pyrazin-3(7H)-one]	–	–	partial Nluc inhibitors	–	–
NCCOCCOCCC(=O)NCCCCCCCCOc1ccc(Cc2cc3c(Cc4ccccc4)[nH]c(-c4ccc(O)cc4)cn-3c2=O)cc1F [JRW-0925, 3-(2-(2-aminoethoxy)ethoxy)-N-(8-(4-((1-benzyl-3-(4-hydroxyphenyl)-6-oxo-2,6-dihydropyrrolo[1,2-a]pyrazin-7-yl)methyl)-2-fluorophenoxy)octyl)propanamide]	–	0.02	partial Nluc inhibitors	–	–
O=C(CCOCCOCCNC(=O)c1ccc(C(=O)[O-])c(-c2c3ccc(O)cc3[o+]c3cc(O)ccc23)c1)NCCCCCCCCOc1ccc(Cc2cc3c(Cc4ccccc4)[nH]c(-c4ccc(O)cc4)cn-3c2=O)cc1F [JRW-0926, 4-((2-(2-(3-((8-(4-((1-benzyl-3-(4-hydroxyphenyl)-6-oxo-2,6-dihydropyrrolo[1,2-a]pyrazin-7-yl)methyl)-2-fluorophenoxy)octyl)amino)-3-oxopropoxy)ethoxy)ethyl)carbamoyl)-2-(3,6-dihydroxyxanthylium-9-yl)benzoate]	–	0.04	exemplary suicide substrates of NanoLuc	–	–
[N-]=[N+]=NCCCCCCOc1ccc(Cc2nc3c(Cc4ccccc4)[nH]c(-c4ccc(O)cc4)cn-3c2=O)cc1F [JRW-0975, 2-(4-((6-azidohexyl)oxy)-3-fluorobenzyl)-8-benzyl-6-(4-hydroxyphenyl)imidazo[1,2-a]pyrazin-3(7H)-one]	–	0.005	exemplary suicide substrates of NanoLuc	–	–
O=c1ccc2cc(Cc3nc4c(Cc5ccccc5)[nH]c(-c5ccc(O)cc5)cn-4c3=O)ccc2o1 [JRW-0995, 8-benzyl-6-(4-hydroxyphenyl)-2-((2-oxo-2H-chromen-6-yl)methyl)imidazo[1,2-a]pyrazin-3(7H)-one]	–	0.009	partial Nluc inhibitors	–	–
O=C(NCCCCCCCCOc1ccc(Cc2nc3c(Cc4ccccc4)[nH]c(-c4ccc(O)cc4)cn-3c2=O)cc1F)c1cc2ccc(O)cc2oc1=O [JRW-1018, N-(8-(4-((8-benzyl-6-(4-hydroxyphenyl)-3-oxo-3,7-dihydroimidazo[1,2-a]pyrazin-2-yl)methyl)-2-fluorophenoxy)octyl)-7-hydroxy-2-oxo-2H-chromene-3-carboxamide]	–	–	partial Nluc inhibitors	–	–
O=C(NCCCCCCCCOc1ccc(Cc2nc3c(Cc4ccccc4)[nH]c(-c4ccc(O)cc4)cn-3c2=O)cc1F)c1cc2cc3c4c(c2oc1=O)CCCN4CCC3 [JRW-1023, N-(8-(4-((8-benzyl-6-(4-hydroxyphenyl)-3-oxo-3,7-dihydroimidazo[1,2-a]pyrazin-2-yl)methyl)-2-fluorophenoxy)octyl)-11-oxo-2,3,6,7-tetrahydro-1H,5H,11H-pyrano[2,3-f]pyrido[3,2,1-ij]quinoline-10-carboxamide]	–	–	did not inhibit NanoLuc	–	–
O=C(NCCCCCCCCOc1ccc(Cc2nc3c(Cc4ccccc4)[nH]c(-c4ccc(O)cc4)cn-3c2=O)cc1F)c1ccc(-c2c3cc(F)c(O)cc3[o+]c3cc(O)c(F)cc23)c(C(=O)[O-])c1 [JRW-1058, 5-((8-(4-((8-benzyl-6-(4-hydroxyphenyl)-3-oxo-3,7-dihydroimidazo[1,2-a]pyrazin-2-yl)methyl)-2-fluorophenoxy)octyl)carbamoyl)-2-(2,7-difluoro-3,6-dihydroxyxanthylium-9-yl)benzoate]	–	–	exemplary suicide substrates of NanoLuc	–	–
O=C(NCCCCCCCCOc1ccc(Cc2nc3c(Cc4ccccc4)[nH]c(-c4ccc(O)cc4)cn-3c2=O)cc1F)c1ccc(-c2c3ccc4cc(O)ccc4c3[o+]c3c2ccc2cc(O)ccc23)c(C(=O)[O-])c1 [JRW-1059, 5-((8-(4-((8-benzyl-6-(4-hydroxyphenyl)-3-oxo-3,7-dihydroimidazo[1,2-a]pyrazin-2-yl)methyl)-2-fluorophenoxy)octyl)carbamoyl)-2-(3,11-dihydroxydibenzo[c,h]xanthen-14-ium-7-yl)benzoate]	–	–	NanoLuc is not inhibited	–	–
Cc1cc(C)n2c1C(CCNC(=O)CCC(=O)NCCCCCCCCOc1ccc(Cc3nc4c(Cc5ccccc5)[nH]c(-c5ccc(O)cc5)cn-4c3=O)cc1F)=C1C=CC=[N+]1[B-]2(F)F [JRW-1088, N1-(8-(4-((8-benzyl-6-(4-hydroxyphenyl)-3-oxo-3,7-dihydroimidazo[1,2-a]pyrazin-2-yl)methyl)-2-fluorophenoxy)octyl)-N4-(2-(5,5-difluoro-1,3-dimethyl-5H-5λ^4,6λ^4-dipyrrolo[1,2-c:2′,1′-f][1,3,2]diazaborinin-10-yl)ethyl)succinamide]	–	–	only partially inhibited	significantly lower	–
